{
  "source": "paper PMC10076643",
  "about": "“Design, synthesis and anticancer activity studies of 3-(coumarin-3-yl)-acrolein derivatives: Evidenced by integrating network pharmacology and vitro assay” (Frontiers in Pharmacology, 2023)",
  "key": {"caspase-3 in KB cells": {"tested_on": "caspase-3 in KB cells", "assay": "Western blot, caspase-3", "type": "cell-based, human", "details": "24 h", "source_text": "Based on the results of network pharmacology, the key proteins related to PI3K/AKT pathway were detected by Western blotting to explore the antitumor mechanism of compound 6e. […] Such an inconsistency might be due to a compensatory increase in PI3K level after the reduction of AKT phosphorylation level. Additionally, the active-caspase 3 protein, anti-apoptosis protein Bcl-2 and pro-apoptosis protein Bax were further analyzed. Caspase-3 normally exists in the cytoplasm as zymogen. During the early stage of apoptosis, caspase-3 (32 KD) is cleaved to the active 17-kD caspase-3 fragment, which is responsible for morphological and biochemical changes in apoptosis. Bcl-2 and Bax are the […] located on the mitochondrial membrane and capable of controlling the MMP (ΔΨm) and the activation of caspase cascade.\nA total of 4 × 10^5 KB cells were seeded into 6-well and grown for overnight. Then the cells adherent to the wall were treated with compound 6e in different concentrations (0, 0.40, 0.80, 1.60 μM) for 24 h. After that, cells were collected, SDS lysate, 100X protease inhibitor and 50X phosphorylation inhibitor were added in a certain proportion to lyse the cells. The protein content was determined by BCA reagent (Beyotime, China) according to the standard curve. […]"}, "KB cells [1]": {"tested_on": "KB cells", "assay": "Annexin V-FITC/PI dual staining apoptosis assay (flow cytometry)", "type": "cell-based, human", "experimental": "To investigate whether compound 6e could induce cell apoptosis, KB cells were treated with compound 6e in different concentrations for 48 h and the Annexin V-FITC/PI dual staining assay was carried out flow cytometry.\nKB cells (5×10^5 cells/well) were seeded into six-well plates. […] Afterwards, cells were collected, washed twice with cold PBS. Then the treated cells were resuspended with 400 μL of 1X Annexin V binding buffer and mixed with 5 μL FITC and 5 μL PI (Annexin V-FITC Apoptosis Analysis Kit, Tianjing), and incubated at room temperature in the dark for 5 min. After the incubation, the samples were immediately analyzed by a Beckman Flow Cytometer."}, "KB cells [2]": {"tested_on": "KB cells", "assay": "Scratch wound healing assay", "type": "cell-based, human", "details": "different concentrations (0.5 IC50, IC50, 2 IC50), after 24 h", "experimental": "Wound healing assay and transwell assay were performed to investigate the effect of compound 6e on the migratory capability of KB cells.\nIn vitro wound-healing assay, KB cells (5 × 10^5 cells/well) were seeded into 6-well plates and incubated at 37 °C in humidified atmosphere with 5% CO2 for 12 h. As the cells were adherent to the wall and the degree of fusion reached more than 90%, cell layers were gently scratched with a 200 μL pipette tip. […] Images of cells were photographed with the inverted fluorescence microscope (Leica DMi8, Germany) at 0 h and 24 h. The areas that were not covered by cells in the scratch wound were quantified by using ImageJ. Then the values obtained in each group were expressed by the percentage of wound closure of cells in the control group. The experiments were performed in triplicate."}, "[3]": {"tested_on": "LO2 (human normal hepatocytes)", "assay": "MTT antiproliferative assay, LO2 normal cells", "type": "cell-based", "details": "Hepatocyte, 72 h", "source_text": "All the synthesized compounds were screened for in vitro antiproliferative activity against four human cancer cell lines A549 (human lung cancer cell line), KB (human oral epidermoid carcinoma cell line), Hela (human cervical carcinoma cell line), MCF-7 (human breast cancer cell line) and two human normal cell lines HUVEC (human umbilical vein endothelial cell) and LO2 (human normal hepatocytes) through the 3-(4,5-dimethyl-2-thiazolyl)-2,5-diphenyl-2-H-tetrazolium bromide (MTT) assay.\nNon-small-cell lung cancer (A549), oral epidermoid carcinoma (KB), cervical cancer (Hela) and breast cancer (MCF-7) cells were purchased from the American Type Culture Collection (ATCC, America). Human umbilical vein endothelial cell (HUVEC) and human normal hepatocytes (LO2) cells were provided by Guangzhou Medical University (Guangzhou, China). A549 and KB cells were cultured in RMPI-1640 medium (Gibco, America). Hela, MCF-7 and LO2 cells were cultured in DMEM medium (Gibco, America). HUVEC cells were cultured in Ham’s F-12K medium (Gibco, America). All the mediums were supplemented with 10% fetal bovine serum (FBS) (BI, State of Israel), 100 U/mL penicillin and 100 μg/mL streptomycin (Gibco, America), and all the cells were incubated in a sterile incubator at 37°C in an environment of 5% CO2. The tested compounds were dissolved in dimethyl sulfoxide (DMSO) at a concentration of 10 mM, and then diluted into different concentration of solutions by culture medium. The final concentration of DMSO was <0.01% (v/v) in all drug treatment groups to avoid the toxicity in the biological system. Untreated cells were used as a blank control and 5-fluorouracil treated cells were used as a positive control.\nThe incubated tumor cells were planted into 96-well plates (4×10^3 cells/well). After 24 h, the cells were adherent to the wall and treated with the compound 6e in different concentrations (0.78, 1.56, 3.12, 6.25, 12.50, 25.00, and 50.00 μM) for 72 h. Afterwards, the medium was supplemented with 10 µL MTT solution. After 4 h, the culture medium was removed and 100 µL DMSO was added. The absorbance was determined at the wavelength of 540 nm and 655 nm using a microplate reader (BioTek Epoch, America). The results were collected from three independent experiments. The IC50 was then calculated by using GraphPad Prism Software (version 7.0) and non-linear regression (curve fit)."}},
  "data": [
    {"smiles": "O=CC=C(Cl)c1cc2ccc(OCc3ccccc3)cc2oc1=O", "note": "[Compound 6e, 3-(7-(Benzyloxy)-2-oxo-2H-chromen-3-yl)-3-chloroacrylaldehyde]", "values": [
      {"measurement": "ratio of cleaved caspase-3 to caspase-3", "setting": "caspase-3 in KB cells; 0.80 μM", "value": "increased"},
      {"measurement": "expression of the cleaved 17-kD caspase-3", "setting": "caspase-3 in KB cells; 1.60 μM", "value": "upregulated"},
      {"measurement": "apoptotic rate in the early stage (Q1-LR)", "setting": "KB cells [1]; 0.5 IC50, 48 h", "value": 6.99, "unit": "%"},
      {"measurement": "late apoptotic rate (Q1-UR)", "setting": "KB cells [1]; 0.5 IC50, 48 h", "value": 5.55, "unit": "%"},
      {"measurement": "total apoptosis rate", "setting": "KB cells [1]; 0.5 IC50, 48 h", "value": 12.54, "unit": "%"},
      {"measurement": "apoptotic rate in the early stage (Q1-LR)", "setting": "KB cells [1]; 2 IC50, 48 h", "value": 13.11, "unit": "%"},
      {"measurement": "late apoptotic rate (Q1-UR)", "setting": "KB cells [1]; 2 IC50, 48 h", "value": 7.22, "unit": "%"},
      {"measurement": "total apoptosis rate", "setting": "KB cells [1]; 2 IC50, 48 h", "value": 20.33, "unit": "%"},
      {"measurement": "apoptotic rate in the early stage (Q1-LR)", "setting": "KB cells [1]; IC50, 48 h", "value": 6.69, "unit": "%"},
      {"measurement": "late apoptotic rate (Q1-UR)", "setting": "KB cells [1]; IC50, 48 h", "value": 7.30, "unit": "%"},
      {"measurement": "total apoptosis rate", "setting": "KB cells [1]; IC50, 48 h", "value": 13.99, "unit": "%"},
      {"measurement": "scratched gaps of KB cells", "setting": "KB cells [2]", "value": "wider than that of the control group and 5-FU group"},
      {"measurement": "IC50", "setting": "[3]", "value": "50.13 ± 0.03", "unit": "µM"}
    ]}
  ]
}
